Reference: patent publication US20140024576A1, “HEPTOSE DERIVATIVES FOR USE IN THE TREATMENT OF BACTERIAL INFECTIONS” (priority 2010, published 2014)

What was measured:
HldE of E. coli (HldE-K) = HldE of E. coli (HldE-K) (Escherichia coli, UniProt P76658); experiment: Inhibition of the enzymatic activity of HldE-K (luminescent assay on kinase activity); type: biochemical
Method: Inhibition of the Enzymatic Activity of HldE-K (Luminescent Assay On Kinase Activity):
The assay buffer “AB” contained 50 mM Hepes pH7.5, 1 mM MnCl2, 25 mM KCl, 0.012% Triton-X100 and 1 mM dithiothreitol (DTT) and 0.1 μM Myelin basic protein (MBP). The following components were added in a white polystyrene Costar plate up to a final volume of 30 μL: 10 μL inhibitor dissolved in DMSO/water 50/50, and 20 μL HldE of E. coli in AB. After 30 min of pre-incubation at room temperature, 30 μL of Substrates mix in AB were added in each well to a final volume of 60 μL. This reaction mixture was then composed of 3 nM HldE, 0.2 μM β-heptose-7-phosphate (custom synthesis) and 0.2 μM ATP (Sigma) in assay buffer. After 30 min of incubation at room temperature, 200 μL of the revelation mix were added to a final volume of 260 µL, including the following constituents at the respective final concentrations: 5000 light units/ml luciferase (Sigma), 30 μM D-luciferin (Sigma), 100 μM N-acetylcysteamine (Aldrich). Luminescence intensity was immediately measured on Luminoskan (Thermofischer) and converted into inhibition percentages. For IC50 determinations, the inhibitor was tested at 6 to 10 different concentrations, and the related inhibitions were fitted to a classical Langmuir equilibrium model using XLFIT (IDBS).

GmhA of E. coli = GmhA of E. coli (Escherichia coli, UniProt P63224); experiment: Inhibition of the enzymatic activity of GmhA (luminescent assay); type: biochemical
Sequence of GmhA of E. coli (P63224 whole entry): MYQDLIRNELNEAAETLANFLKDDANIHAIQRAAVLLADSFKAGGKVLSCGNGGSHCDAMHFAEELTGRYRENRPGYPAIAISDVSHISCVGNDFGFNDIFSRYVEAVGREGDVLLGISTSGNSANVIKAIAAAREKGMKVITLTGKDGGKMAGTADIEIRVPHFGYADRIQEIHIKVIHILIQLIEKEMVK
Method: Inhibition of the Enzymatic Activity of GmhA (Luminescent Assay):
The assay buffer “AB” contained 50 mM Hepes pH7.5, 1 mM MnCl2, 25 mM KCl, 0.012% Triton-X100 and 1 mM dithiothreitol (DTT) and 0.1 μM Myelin basic protein (MBP). The following components were added in a white polystyrene Costar plate up to a final volume of 30 μL: 10 μL inhibitor dissolved in DMSO/water 50/50, and 20 μL GmhA of E. coli in AB. After 30 min of pre-incubation at room temperature, 30 μL of Substrates mix in AB were added in each well to a final volume of 60 μL. This reaction mixture was then composed of 2 nM GmhA, 3 μM sedoheptulose-7-phosphate (Sigma), 3 μM ATP (Sigma) and 50 nM HldE of E. coli in assay buffer. After 30 min of incubation at room temperature, 100 μL of the revelation mix were added to a final volume of 160 μL, including the following constituents at the respective final concentrations: 10000 light units/ml luciferase (Sigma), 20 μM D-luciferin (Sigma), 100 μM N-acetylcysteamine (Aldrich). Luminescence intensity was immediately measured on Luminoskan (Thermofischer) and converted into inhibition percentages. For IC50 determinations, the inhibitor was tested at 6 to 10 different concentrations, and the related inhibitions were fitted to a classical langmuir equilibrium model using XLFIT (IDBS).

Sequence of HldE of E. coli (HldE-K) (P76658 whole entry): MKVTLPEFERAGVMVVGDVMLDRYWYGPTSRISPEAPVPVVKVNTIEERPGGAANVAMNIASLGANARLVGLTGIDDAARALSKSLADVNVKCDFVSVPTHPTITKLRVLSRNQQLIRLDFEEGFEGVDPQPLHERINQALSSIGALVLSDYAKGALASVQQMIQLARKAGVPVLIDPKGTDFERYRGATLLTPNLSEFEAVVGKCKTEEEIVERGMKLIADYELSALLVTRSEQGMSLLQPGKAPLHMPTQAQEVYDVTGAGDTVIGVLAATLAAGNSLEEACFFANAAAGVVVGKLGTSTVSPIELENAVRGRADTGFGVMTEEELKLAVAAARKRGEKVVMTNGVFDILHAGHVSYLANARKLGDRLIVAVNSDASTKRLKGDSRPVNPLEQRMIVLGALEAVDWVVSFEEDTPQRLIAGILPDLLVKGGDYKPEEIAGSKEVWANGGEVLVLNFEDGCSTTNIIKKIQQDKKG

| Structure (SMILES) | IC50 (HldE of E. coli (HldE-K)) | IC50 (GmhA of E. coli) |
| --- | --- | --- |
| CC1(O)OC(C(O)COP(=O)(O)O)C(O)C(O)C1O [Example 12, 1-C-Methyl 7-O-phosphoryl-D-glycero-α-D-manno-heptopyranose] | < 100 µM | < 100 µM |
| O=P(O)(O)OC[C@@H](O)[C@H]1O[C@H](F)[C@@H](O)[C@@H](O)[C@@H]1O [Example 6, α-Fluoro 7-O-phosphoryl-D-glycero-α-D-manno-heptopyranoside] | < 100 µM | < 100 µM |
| CO[C@@H]1O[C@H]([C@H](O)COP(=O)(O)O)[C@@H](O)[C@H](O)[C@@H]1O [Example 3, 1-O-Methyl-D-glycero-β-D-manno-heptopyranose 7-phosphate] |  | < 100 µM |
| O=P(O)(O)OC[C@@H](O)[C@H]1O[C@@H](CO)[C@@H](O)[C@@H](O)[C@@H]1O [Example 11, 1-β-C-Hydroxymethylene 1-Deoxy-7-O-phosphoryl-D-glycero-D-manno-heptopyranose] | < 100 µM | < 100 µM |
| CCC[C@H]1O[C@H]([C@H](O)COP(=O)(O)O)[C@@H](O)[C@H](O)[C@@H]1O [Example 8, 1-Deoxy-1-propyl-D-glycero-α-D-manno-heptopyranose 7-phosphate] | < 100 µM | < 100 µM |
| O=P(O)(O)OC[C@@H](O)[C@H]1O[C@@](O)(CO)[C@@H](O)[C@@H](O)[C@@H]1O [Example 13, 1-C-Hydroxymethylene 7-O-phosphoryl-D-glycero-D-manno-heptopyranose] | < 100 µM | < 100 µM |
| CO[C@H]1OC([C@H](O)COP(=O)(O)O)[C@@H](O)C(O)C1O (stereo partly drawn) [Example 1, Methyl 7-O-phosphate-D-glycero-α-D-gluco-heptopyranoside] | < 100 µM | < 100 µM |
